“Also recorded” adds a separate entry of the source.
What was measured:
[1] = test system: KR158 astrocytoma cells (Nf1−/−; Trp53−/−); experiment: XTT cell proliferation assay, KR158; assay type: cell-based, mouse
Protocol: (§1) XTT Cell Proliferation Assay: Cells were seeded into 96-well plates at a density of 2,000 cells/well and allowed to reattach overnight. Cells were treated with SA, synthetic analogs, camptothecin (NCI Chemotherapeutics Repository, Md., USA), or DMSO control at the indicated concentrations continuously for 48 hours followed by assay in the 96-well plate for relative viable cell number using the dye […] (XTT) and a Wallac-Victor 2 plate reader (Perkin-Elmer, Waltham, Mass., USA). Absorbance was determined at 450 nm with 650 nm as a reference reading. Primary astrocytes were additionally assayed at a 96 hour time point.

KR158 cells = experiment: MultiTox-Fluor Multiplex Cytotoxicity Assay; assay type: cell-based, mouse; details: 48 hrs continuous treatment
Protocol: Cytotoxicity Assay: The MultiTox-Fluor Multiplex Cytotoxicity Assay (Promega, Madison, Wis., USA) was used according to manufacturer instructions. Briefly, KR158 cells were harvested and seeded 2,500 cells/well in a black walled 96-well plate (Corning, Lowell, Mass., USA). Cells were treated with SA or DMSO control at the indicated concentrations continuously for 48 hours followed by addition of the fluorescent substrates from the assay kit. The GF-AFC Substrate enters live cells where it is cleaved by the live-cell protease to release AFC. The bis-AAF-R110 substrate cannot enter live cells but instead is be cleaved by the dead-cell protease activity to release R110.

[2] = test system: KR158 cells transduced with empty vector (PMSCV); experiment: XTT cell proliferation assay, KR158 empty vector; assay type: cell-based, mouse; details: two-day cell proliferation assay
Protocol: as §1
Constructs and Transfections: NF1-GRD retroviral constructs were obtained from Indiana University. Cells transduced with the NF1-GRD construct or PMSCV empty vector control as previously described (Hiatt et al., J. Biol. Chem., 2001, 276:7240-5) were maintained in 1 μg/mL puromycin (Sigma).

[3] = test system: phosphorylation of Ser 19 on myosin light chain 2 (MLC2); experiment: Phospho-myosin light chain 2 immunostaining, KR158; assay type: cell-based, mouse; details: KR158 cells treated with SA and EGF
Protocol: (§2) Cell Morphology Assays and Confocal Microscopy: To assay cytoskeleton morphology, KR158 cells, mouse primary astrocytes, KR158 clones expressing the NF1-GRD constructs, K14553 cells, and A549 were seeded to cover slips and allowed to reattach overnight. Cells were treated for 18 hours with either the indicated concentrations of SA, or the vehicle control DMSO. The cover slips were fixed in 3.7% paraformaldehyde, permeablized in 0.1% Triton-X100, and stained with Alexa Fluor 488-phalloidin (Invitrogen, Carlsbad, Calif., USA) to detect actin and cells were mounted in Prolong Antifade containing DAPI (Invitrogen) to stain nuclei. The cells were imaged on a LSM510 confocal microscope (Carl Zeiss Inc., Jena, Germany). For phospho-myosin light chain 2 (MLC) detection, cells were seeded to coverslips as described above. Cells were serum starved in 0.5% FBS and SA or DMSO vehicle control for 18 hours, and then pulsed with 10 ng/mL EGF (Invitrogen) for 5 min. […] Actin structures were monitored continuously over a 16 hr period using confocal microscopy equipped with a growth chamber (37° C., humidified atmosphere and 5% CO2). […]

NCI 60-cell line panel = experiment: NCI 60 cell line assay; assay type: cell-based, human
SNB-75 = experiment: NCI60 cell line response to SA, SNB-75; assay type: cell-based, human; details: SNB-75, doubling time 62.8 hours
A549 cells [4] = experiment: Cell morphology / actin confocal microscopy, A549; assay type: cell-based, human; details: 18 hours treatment
Protocol: as §2

[5] = test system: A549 human lung carcinoma cells; experiment: Clonogenic assay, A549; assay type: cell-based; details: 18 hrs treatment, colonies after one week
Protocol: Clonogenic Assays: Monolayers of cells were treated for 18 hrs with SA, and then harvested, counted, and seeded to 35 mm dishes at a density of 1000 cells per dish. After one week, macroscopic colonies were stained with crystal violet (Sigma, St. Louis, Mo., USA) and counted.

A549 cells [6] = experiment: XTT cell proliferation assay, A549; assay type: cell-based, human; details: 48 hours
Protocol: as §1

## CC(C)=CCC/C(C)=C/Cc1c(O)cc(/C=C/c2cc(O)c3c(c2)C[C@@H]2C(C)(C)[C@H](O)[C@H](O)C[C@@]2(C)O3)cc1O [SA, Schweinfurthin A]
[1]; 48 hours, XTT
  inhibition of proliferation (percent viability versus control): highly active; also recorded: sensitive; also recorded: inhibited both the KR158 and SF-295 cell lines in a dose dependent manner
[1]; Mus musculus, KR158, Nf1-mutant astrocytoma cells
  GI50: 10 nM
KR158 cells
  cell killing (dead-cell protease activity): dose dependent increase of dead-cell protease activity; also recorded: dose dependent increase in cell killing
[2]
  inhibition of proliferation: highly active
[3]
  MLC phosphorylation (Ser 19): dose dependent decrease of MLC phosphorylation
NCI 60-cell line panel
  selectivity: 1000 fold
NCI 60-cell line panel; NCI 60-cell line panel
  differential cytotoxicity: significant differential cytotoxicity
SNB-75
  logGI50: −7.82
A549 cells [4]
  actin organization, phalloidin staining: no visible changes in actin organization
[5]
  colony growth: not inhibited; also recorded: formed colonies up to the highest concentration of SA tested
A549 cells [6]
  inhibition of proliferation (percent viability versus control): does not inhibit; also recorded: no apparent effect

From patent publication US8686016B2, “Schweinfurthins and uses thereof” (The United States of America, as represented by the …, priority 2009, dated 2014)
